According to US20230391871A1, “MONOAMINE OXIDASE BLOCKADE THERAPY FOR TREATING CANCER THROUGH REGULATING TUMOR ASSOCIATED MACROPHAGES (TAMS)” (THE REGENTS OF THE UNIVERSITY OF CALIFORNIA, priority 2020, published 2023):

Tests used:
[1] = test system: human monocyte-derived macrophages (MDMs); settings: phenelzine 20 μM, IL-4/IL-13 for 2 days
Experimental: (§1) FIG. 6: MAO-A blockade for cancer immunotherapy-human TAM and clinical data correlation studies. a, Studying the MAOA gene expression in human M1- and M2-like macrophages. A transcriptome data set (GSE35449) was analyzed using the prioritization function of a Tumour Immune Dysfunction and Exclusion (TIDE) computational method. Heatmaps are presented, showing the M2-like/M1-like mRNA fold change of MAOA gene as well as a selected group of immunosuppressive, immunostimulatory, and immune checkpoints signature genes. b-d, Studying the MAO-A expression in in vitro differentiated and IL-4/IL-13-polarized human monocyte-derived macrophages (MDMs: n=4). MDMs were generated by culturing healthy donor peripheral blood monocytes over 6 days, followed by stimulation with IL-4 and IL-13 for another 2 days. NC, no cytokine stimulation. (b,c) QPCR analyses of MAOA mRNA expression in MDMs over the 6-day MDM differentiation culture (b) and post the IL-4/IL-13-induced polarization (c). (d) Western blot analyses of MAO-A protein expression in IL-4/IL-13-polarized MDMs. e-g, Studying the in vitro polarization of human MDMs (n=3). MDMs were stimulated with IL-4/IL-13 for 2 days, in the presence or absence of phenelzine (Phe, 20 μM) treatment. NC, no cytokine stimulation: NT, no phenelzine treatment. (e) FACS analyses of CD206 expression on MDMs. (f,g) QPCR analyses ALOX15 (f) and (CD200R1 (g) mRNA expression in MDMs. h-j, Studying the in vivo polarization of human macrophages in a human Tumour-TAM Co-Inoculation xenograft mouse model (n=4). (h) Experimental design. FACS-sorted healthy donor peripheral blood monocytes were mixed with human A375 melanoma cells and s.c. injected into NSG mice to form solid tumours, with or without phenelzine treatment (Phe or NT). (i,j) FACS analyses of CD206 (i) and CD273 (j) expression on TAMs (gated as hCD45^+hCD11b^+hCD14^+ cells of total TIIs) isolated from experimental mice at day 10. k-m, Studying the in vitro efficacy of phenelzine in reprogramming human TAMs and enhancing human T cell antitumour reactivity (n=6). (k) Schematics showing an in vitro 3D human tumour/TAM/T cell organoid culture. A375-A2-ESO, human A375 melanoma cell line engineered to express an NY-ESO-1 tumour antigen as well as its matching HLA-A2 molecule: ESO-T, human peripheral blood CD8 T cells engineered to express an NY-ESO-1-specific TCR: Polarized TAM, human MDMs polarized in vitro with IL-4/IL-13 in the presence or absence of phenelzine treatment (denoted as TAM Phe or TAM NT, respectively). Cells were mixed and cultured as organoids for two days before analysis. (l,m) FACS quantification of live tumour cells (gated as hCD45^− cells) and ESO-T cells (gated as hCD45^+hCD8^+ESO-TCR^+ cells). n, QPCR analyses of MAOA mRNA expression in human TAMs isolated from ovarian cancer patient tumour samples (n=4). Monocytes isolated from random healthy donor peripheral blood were included as controls (n=10). Mo, monocyte. o-r, Clinical data correlation studies. The correlation function of a TIDE computational method was utilized. The association between the intratumoural MAOA gene expression levels and overall survival (OS) of cancer patients was computed through the two-sided Wald test in the Cox-PH regression. For each patient cohort, tumour samples were divided into the MAOA-high (samples with MAOA expression one standard deviation above the average) and MAOA-low (remaining samples) groups, followed by analysing the OS of each group. TIDE analyses of an ovarian cancer patient cohort (GSE26712, n=182: o), a lymphoma patient cohort (GSE10846, n=388: p), a breast cancers patient cohort (GSE9893, n=148: q), and a melanoma patient cohort with anti-PD-1 therapy (PRJEB23709, n=41: r). Representative of 1 (n), 2 (b-d, h-j) and 3 (e-g, k-m) experiments. All data are presented as the mean±SEM. ns, not significant, *P<0.05, **P<0.01, and ***P<0.001, by 1-way ANOVA (l, m), 2-way ANOVA (e-g), or by Student's t test (i, j, n).

[2] = test system: A375-A2-ESO tumour cells / ESO-T cells / polarized MDMs
Experimental: as §1

human TAMs = settings: A375 + human monocytes s.c. in NSG mice; phenelzine 30 mg/kg/day i.p.; day 10
Experimental: as §1

[3] = ESO-T cells co-cultured with phenelzine-treated vs non-phenelzine-treated MDMs

Structure (SMILES): NNCCc1ccccc1 [phenelzine]
- ALOX15 mRNA expression in MDMs (QPCR) [1]: decreased expression
- CD200R1 mRNA expression in MDMs (QPCR) [1]: decreased expression
- CD206 expression on MDMs (FACS) [1]: decreased expression
- CD273 expression on MDMs (FACS) [1]: decreased expression
- IL-4/IL-13-induced immunosuppressive polarization of MDMs [1]: significantly inhibited
- CD25 expression on ESO-T cells [2, 3]: increased
- CD62L expression on ESO-T cells [2, 3]: decreased
- ESO-T cell number [2, 3]: increased
- immunosuppressive effect of IL-4/IL-13-polarized MDMs on ESO-T cell-mediated killing of A375-A2-ESO tumour cells ([2]; phenelzine treatment during MDM polarization, organoid cultured 2 days): largely alleviated
- CD206 expression on human TAMs (FACS) (human TAMs): decreased expression
- CD273 expression on human TAMs (FACS) (human TAMs): decreased expression
- immunosuppressive polarization of human TAMs in vivo (human TAMs): effectively suppressed
